Assay results taken from US20090253709A1 (NATIONAL DEFENSE MEDICAL CENTER, priority 2008, published 2009).

Tests used:
Assay type in all cases: cell-based
CAK1-1 = test: In vitro cytotoxicity, Development Therapeutics Program; conditions: CAK1-1, renal cancer; 1.0×10^−5 M
Source text: (§1) From the in vitro experiments of the Development Therapeutics Program of the Cancer Research Institute, the United States, it was known that the synthetic heterocyclic anthraquinone derivatives of the present invention have different inhibition levels to the different cancer cell lines under the concentration of 1.0×10^−5 M. Please refer to Table 2, which is the result of in vitro cytotoxicity of 2,7-disubstituted anthraquinone derivatives of the present invention.

HOP-62 = test: as above; conditions: HOP-62, non-small cell lung cancer; 1.0×10^−5 M
Source text: as §1

TK-10 = test: as above; conditions: TK-10, renal cancer; 1.0×10^−5 M
Source text: as §1

MDA-MB-231/ATCC = test: as above; conditions: breast cancer, 1.0×10^−5 M
Source text: as §1

OVCAR-8 = test: as above; conditions: OVCAR-8, ovarian cancer; 1.0×10^−5 M
Source text: as §1

PC-3 = test: as above; conditions: PC-3, prostate cancer; 1.0×10^−5 M
Source text: as §1

SF-268 = test: as above; conditions: SF-268, CNS cancer; 1.0×10^−5 M
Source text: as §1

SW-620 = test: as above; conditions: SW-620, colon cancer; 1.0×10^−5 M
Source text: as §1

HL-60(TB) = test: as above; conditions: leukemia, 1.0×10^−5 M
Source text: as §1

NCI/ADR-RES = test: as above; conditions: breast cancer, 1.0×10^−5 M
Source text: as §1

ACHN = test: as above; conditions: renal cancer, 1.0×10^−5 M
Source text: as §1

NCl-H322M = test: as above; conditions: non-small cell lung cancer, 1.0×10^−5 M
Source text: as §1

786-0 = test: as above; conditions: 786-0, renal cancer; 1.0×10^−5 M
Source text: as §1

K-562 = test: as above; conditions: K-562, leukemia; 1.0×10^−5 M
Source text: as §1

NCl-H226 = test: as above; conditions: NCl-H226, non-small cell lung cancer; 1.0×10^−5 M
Source text: as §1

A498 = test: as above; conditions: A498, renal cancer; 1.0×10^−5 M
Source text: as §1

T-47D = test: as above; conditions: breast cancer, 1.0×10^−5 M
Source text: as §1

HOP-92 = test: as above; conditions: HOP-92, non-small cell lung cancer; 1.0×10^−5 M
Source text: as §1

OVCAR-5 = test: as above; conditions: OVCAR-5, ovarian cancer; 1.0×10^−5 M
Source text: as §1

BT-549 = test: as above; conditions: BT-549, breast cancer; 1.0×10^−5 M
Source text: as §1

RPMI-8226 = test: as above; conditions: RPMI-8226, leukemia; 1.0×10^−5 M
Source text: as §1

UACC-257 = test: as above; conditions: UACC-257, melanoma; 1.0×10^−5 M
Source text: as §1

HCT-116 = test: as above; conditions: HCT-116, colon cancer; 1.0×10^−5 M
Source text: as §1

M14 = test: as above; conditions: M14, melanoma; 1.0×10^−5 M
Source text: as §1

SK-OV-3 = test: as above; conditions: SK-OV-3, ovarian cancer; 1.0×10^−5 M
Source text: as §1

SF-295 = test: as above; conditions: SF-295, CNS cancer; 1.0×10^−5 M
Source text: as §1

SK-MEL-28 = test: as above; conditions: SK-MEL-28, melanoma; 1.0×10^−5 M
Source text: as §1

U251 = test: as above; conditions: U251, CNS cancer; 1.0×10^−5 M
Source text: as §1

SN12C = test: as above; conditions: renal cancer, 1.0×10^−5 M
Source text: as §1

NCI-H23 = test: as above; conditions: NCI-H23, non-small cell lung cancer; 1.0×10^−5 M
Source text: as §1

NCl-H522 = test: as above; conditions: NCl-H522, non-small cell lung cancer; 1.0×10^−5 M
Source text: as §1

MCF7 = test: as above; conditions: MCF7, breast cancer; 1.0×10^−5 M
Source text: as §1

HT29 = test: as above; conditions: HT29, colon cancer; 1.0×10^−5 M
Source text: as §1

SNB-19 = test: as above; conditions: SNB-19, CNS cancer; 1.0×10^−5 M
Source text: as §1

SK-MEL-5 = test: as above; conditions: SK-MEL-5, melanoma; 1.0×10^−5 M
Source text: as §1

[1] = system: different cancer cell lines; test: In vitro cytotoxicity, Development Therapeutics Program, summary over all cell lines; conditions: 1.0×10^−5 M
Source text: as §1

SMILES: O=C(CCN1CCCC1)Nc1ccc2c(c1)C(=O)c1cc(NC(=O)CCN3CCCC3)ccc1C2=O [Compound 18, 2,7-Bis[3-(pyrrolidino)propionamido]anthraquinone]
- Cellular growth rate (%) (CAK1-1): 55.55%
- Cellular growth rate (%) (HOP-62): 18.79%
- Cellular growth rate (%) (TK-10): 31.22%
- Cellular growth rate (%) (MDA-MB-231/ATCC): 30.47%
- Cellular growth rate (%) (OVCAR-8): 19.58%
- Cellular growth rate (%) (PC-3): 21.66%
- Cellular growth rate (%) (SF-268): 26.67%
- Cellular growth rate (%) (SW-620): 20.01%
- Cellular growth rate (%) (HL-60(TB)): 85.84%
- Cellular growth rate (%) (NCI/ADR-RES): 80.59%
- Cellular growth rate (%) (ACHN): 29.65%
- Cellular growth rate (%) (NCl-H322M): 45.79%
- Cellular growth rate (%) (786-0): 40.51%
- Cellular growth rate (%) (K-562): 6.40%
- Cellular growth rate (%) (NCl-H226): 41.10%
- Cellular growth rate (%) (A498): −0.91%
- Cellular growth rate (%) (T-47D): 58.98%
- Cellular growth rate (%) (HOP-92): 7.04%
- Cellular growth rate (%) (OVCAR-5): 18.81%
- Cellular growth rate (%) (BT-549): 76.91%
- Cellular growth rate (%) (RPMI-8226): 47.90%
- Cellular growth rate (%) (UACC-257): −17.88%
- Cellular growth rate (%) (HCT-116): 10.51%
- Cellular growth rate (%) (M14): 53.88%
- Cellular growth rate (%) (SK-OV-3): 27.14%
- Cellular growth rate (%) (SF-295): 48.62%
- Cellular growth rate (%) (SK-MEL-28): 14.99%
- Cellular growth rate (%) (U251): 18.16%
- Cellular growth rate (%) (SN12C): 6.68%
- Cellular growth rate (%) (NCI-H23): 31.49%
- Cellular growth rate (%) (NCl-H522): 29.16%
- Cellular growth rate (%) (MCF7): 13.35%
- Cellular growth rate (%) (HT29): 19.47%
- Cellular growth rate (%) (SNB-19): 66.97%
- Cellular growth rate (%) (SK-MEL-5): 56.94%
- Cellular growth rate (%), Mean [1]: 30.97%
